Measured values taken from patent US10251394B2, “Molecules having pesticidal utility, and intermediates, compositions, and processes, related thereto” (Dow AgroSciences LLC, priority 2016, dated 2019).

How the values were obtained:
[1] = tested on: Beet Armyworm (Spodoptera exigua); experiment: Bioassay on Beet Armyworm (BAW), 128-well diet tray assay; type: in vivo; settings: for pest or weed control at 50 µg/cm2: Beet Armyworm, Table ABC, read-out: BAW rating
Description: (§1) Example A: Bioassays on Beet Armyworm (Spodoptera Exigua, LAPHEG) (“BAW”), Corn Earworm (Helicoverpa Zea, HELIZE) (“CEW”), and Cabbage Looper (Trichoplusia Ni, TRIPNI) (“CL”)
(§2) Certain molecules disclosed in this document were tested against BAW, CEW, and CL using procedures described in the following examples. In the reporting of the results, the “BAW, CEW, & CL Rating Table” was used (See Table Section).
Bioassays on BAW were conducted using a 128-well diet tray assay. One to five second instar BAW larvae were placed in each well (3 mL) of the diet tray that had been previously filled with 1 mL of artificial diet to which 50 μg/cm^2 of the test molecule (dissolved in 50 μL of 90:10 acetone-water mixture) had been applied (to each of eight wells) and then allowed to dry. Trays were covered with a clear self-adhesive cover and held at 25° C., 14:10 light-dark for five to seven days. Percent mortality was recorded for the larvae in each well; activity in the eight wells was then averaged. The results are indicated in the table entitled “Table ABC: Biological Results” (See Table Section).
(§3) Bioassays on BAW and CL were conducted according to the procedures outlined in Example A: Bioassays on Beet Armyworm (“BAW”) and Cabbage Looper (“CL”) using the indicated concentrations.

[2] = tested on: Cabbage Looper (Trichoplusia ni); experiment: Bioassay on Cabbage Looper (CL), 128-well diet tray assay; type: in vivo; settings: for pest or weed control at 50 µg/cm2: Cabbage Looper, Table ABC, read-out: CL rating
Description: as §1, §2
Bioassays on CL were conducted using a 128-well diet tray assay. One to five second instar CL larvae were placed in each well (3 mL) of the diet tray that had been previously filled with 1 mL of artificial diet to which 50 μg/cm^2 of the test molecule (dissolved in 50 μL of 90:10 acetone-water mixture) had been applied (to each of eight wells) and then allowed to dry. Trays were covered with a clear self-adhesive cover and held at 25° C., 14:10 light-dark for five to seven days. Percent mortality was recorded for the larvae in each well; activity in the eight wells was then averaged. The results are indicated in the table entitled “Table ABC: Biological Results” (See Table Section).
as §3

Work on `C[C@@H](NC(=O)c1ccc(/C(F)=C/C(c2cc(Cl)c(Cl)c(Cl)c2)C(F)(F)F)cc1Cl)C(=O)N(C)CC(F)(F)F` (stereo partly drawn) [F49, 2-Chloro-N—((R)-1-(methyl(2,2,2-trifluoroethyl)amino)-1-oxopropan-2-yl)-4-((Z)-1,4,4,4-tetrafluoro-3-(3,4,5-trichlorophenyl)but-1-en-1-yl)benzamide] yielded a pest or weed control at 50 µg/cm2 [1] of 50 to 100% and a pest or weed control at 50 µg/cm2 [2] of 50 to 100%.

In the case of `C[C@@H](NC(=O)c1ccc(/C(F)=C/C(c2cc(Cl)c(Cl)c(Cl)c2)C(F)(F)F)cc1Br)C(=O)N(C)CC(F)(F)F` (stereo partly drawn) [F50, 2-Bromo-N—((R)-1-(methyl(2,2,2-trifluoroethyl)amino)-1-oxopropan-2-yl)-4-((Z)-1,4,4,4-tetrafluoro-3-(3,4,5-trichlorophenyl)but-1-en-1-yl)benzamide], the pest or weed control at 50 µg/cm2 [1] was 50 to 100% and the pest or weed control at 50 µg/cm2 [2] was 50 to 100%.

`CN(CC(F)(F)F)C(=O)CNC(=O)c1ccc(/C(F)=C/C(c2cc(Cl)c(Cl)c(Cl)c2)C(F)(F)F)cc1C(F)(F)F` (centres unmarked) [F51, (Z)—N-(2-(Methyl(2,2,2-trifluoroethyl)amino)-2-oxoethyl)-4-(1,4,4,4-tetrafluoro-3-(3,4,5-trichlorophenyl)but-1-en-1-yl)-2-(trifluoromethyl)benzamide] was tested, and the pest or weed control at 50 µg/cm2 [1] was 50 to 100% and the pest or weed control at 50 µg/cm2 [2] was 50 to 100%.

`CC(C)(NC(=O)c1ccc(/C(F)=C/C(c2cc(Cl)c(Cl)c(Cl)c2)C(F)(F)F)cc1C(F)(F)F)C(=O)NCC(F)(F)F` (centres unmarked) [F54, (Z)—N-(2-Methyl-1-oxo-1-((2,2,2-trifluoroethyl)amino)propan-2-yl)-4-(1,4,4,4-tetrafluoro-3-(3,4,5-trichlorophenyl)but-1-en-1-yl)-2-(trifluoromethyl)benzamide] was tested, and the pest or weed control at 50 µg/cm2 [1] was 50 to 100% and the pest or weed control at 50 µg/cm2 [2] was 50 to 100%.

`C[C@@H](NC(=O)c1ccc(/C(F)=C/C(c2cc(Cl)c(Cl)c(Cl)c2)C(F)(F)F)cc1C(F)(F)F)C(=O)N(CC(F)(F)F)NC(=O)OC(C)(C)C` (stereo partly drawn) [F55, tert-Butyl 2-((2R)-2-(4-((Z)-1,4,4,4-tetrafluoro-3-(3,4,5-trichlorophenyl)but-1-en-1-yl)-2-(trifluoromethyl)benzamido)propanoyl)-2-(2,2,2-trifluoroethyl)hydrazinecarboxylate] showed a pest or weed control at 50 µg/cm2 [1] of 50 to 100% and a pest or weed control at 50 µg/cm2 [2] of 50 to 100%.

In the case of `O=C(NC1(C(=O)CCC(F)(F)F)CC1)c1ccc(/C(F)=C/C(c2cc(Cl)c(Cl)c(Cl)c2)C(F)(F)F)cc1C(F)(F)F` (centres unmarked) [F56, (Z)-4-(1,4,4,4-Tetrafluoro-3-(3,4,5-trichlorophenyl)but-1-en-1-yl)-N-(1-(4,4,4-trifluorobutanoyl)cyclopropyl)-2-(trifluoromethyl)benzamide], the pest or weed control at 50 µg/cm2 [1] was 50 to 100% and the pest or weed control at 50 µg/cm2 [2] was 50 to 100%.

For `CC(F)(F)C(/C=C(\F)c1ccc(C(=O)NC2(C(=O)NCC(F)(F)F)CC2)c(C(F)(F)F)c1)c1cc(Cl)c(Cl)c(Cl)c1` (centres unmarked) [F58, (Z)-4-(1,4,4-Trifluoro-3-(3,4,5-trichlorophenyl)pent-1-en-1-yl)-N-(1-((2,2,2-trifluoroethyl)carbamoyl)cyclopropyl)-2-(trifluoromethyl)benzamide], the pest or weed control at 50 µg/cm2 [1] was 50 to 100% and the pest or weed control at 50 µg/cm2 [2] was 50 to 100%.

Compound `CC(F)(F)C(/C=C(\F)c1ccc(C(=O)NCC(=O)NCC(F)(F)F)c(C(F)(F)F)c1)c1cc(Cl)c(Cl)c(Cl)c1` (centres unmarked) [F62, (Z)—N-(2-Oxo-2-((2,2,2-trifluoroethyl)amino)ethyl)-4-(1,4,4-trifluoro-3-(3,4,5-trichlorophenyl)pent-1-en-1-yl)-2-(trifluoromethyl)benzamide] has a pest or weed control at 50 µg/cm2 [1] of 50 to 100% and a pest or weed control at 50 µg/cm2 [2] of 50 to 100%.

`CCNC(=O)[C@@H](C)NC(=O)c1ccc(/C(F)=C/C(c2cc(Cl)c(Cl)c(Cl)c2)C(F)(F)F)cc1C(F)(F)F` (stereo partly drawn) [F63, N—((R)-1-(Ethylamino)-1-oxopropan-2-yl)-4-((Z)-1,4,4,4-tetrafluoro-3-(3,4,5-trichlorophenyl)but-1-en-1-yl)-2-(trifluoromethyl)benzamide] showed a pest or weed control at 50 µg/cm2 [1] of 50 to 100% and a pest or weed control at 50 µg/cm2 [2] of 50 to 100%.

Compound `CCNC(=O)[C@@H](C)NC(=O)c1ccc(/C(F)=C/C(c2cc(Cl)c(Cl)c(Cl)c2)C(F)(F)F)cc1Cl` (stereo partly drawn) [F64, 2-Chloro-N—((R)-1-(ethylamino)-1-oxopropan-2-yl)-4-((Z)-1,4,4,4-tetrafluoro-3-(3,4,5-trichlorophenyl)but-1-en-1-yl)benzamide] has a pest or weed control at 50 µg/cm2 [1] of 50 to 100% and a pest or weed control at 50 µg/cm2 [2] of 50 to 100%.

For `CC(NC(=O)CNC(=O)c1ccc(/C(F)=C/C(c2cc(Cl)c(Cl)c(Cl)c2)C(F)(F)F)cc1C(F)(F)F)C(F)(F)F` (centres unmarked) [F65, (Z)—N-(2-Oxo-2-((1,1,1-trifluoropropan-2-yl)amino)ethyl)-4-(1,4,4,4-tetrafluoro-3-(3,4,5-trichlorophenyl)but-1-en-1-yl)-2-(trifluoromethyl)benzamide], the pest or weed control at 50 µg/cm2 [1] was 50 to 100% and the pest or weed control at 50 µg/cm2 [2] was 50 to 100%.

Work on `CC(NC(=O)CNC(=O)c1ccc(/C(F)=C/C(c2cc(Cl)c(Cl)c(Cl)c2)C(F)(F)F)cc1Cl)C(F)(F)F` (centres unmarked) [F66, (Z)-2-Chloro-N-(2-oxo-2-((1,1,1-trifluoropropan-2-yl)amino)ethyl)-4-(1,4,4,4-tetrafluoro-3-(3,4,5-trichlorophenyl)but-1-en-1-yl)benzamide] yielded a pest or weed control at 50 µg/cm2 [1] of 50 to 100% and a pest or weed control at 50 µg/cm2 [2] of 50 to 100%.

For `C[C@@H](NC(=O)c1ccc(/C(F)=C/C(c2cc(Cl)c(Cl)c(Cl)c2)C(F)(F)F)cc1I)C(=O)NCC(F)(F)F` (stereo partly drawn) [F67, 2-Iodo-N—((R)-1-oxo-1-((2,2,2-trifluoroethyl)amino)propan-2-yl)-4-((Z)-1,4,4,4-tetrafluoro-3-(3,4,5-trichlorophenyl)but-1-en-1-yl)benzamide], the mortality at 0.05 µg/cm2 ([1]; 168 h, 0.05 μg/cm^2 on artificial diet, second instar larvae, five to seven days, read-out: BAW Percent control (or mortality)) was 100%, the mortality at 0.5 µg/cm2 ([1]; 168 h, 0.5 μg/cm^2 on artificial diet, second instar larvae, five to seven days, read-out: BAW Percent control (or mortality)) was 100% and the mortality at 5 µg/cm2 ([1]; 168 h, 5 μg/cm^2 on artificial diet, second instar larvae, five to seven days, read-out: BAW Percent control (or mortality)) was 100%. The pest or weed control at 50 µg/cm2 [1] was 50 to 100%, the mortality at 0.05 µg/cm2 ([2]; 168 h, 0.05 μg/cm^2 on artificial diet, second instar larvae, five to seven days, read-out: CL Percent control (or mortality)) was 100% and the mortality at 0.5 µg/cm2 ([2]; 168 h, 0.5 μg/cm^2 on artificial diet, second instar larvae, five to seven days, read-out: CL Percent control (or mortality)) was 100%. It also gave a mortality at 5 µg/cm2 ([2]; 168 h, 5 μg/cm^2 on artificial diet, second instar larvae, five to seven days, read-out: CL Percent control (or mortality)) of 100% and a pest or weed control at 50 µg/cm2 [2] of 50 to 100%.

In the case of `CCC(F)(F)C(/C=C(\F)c1ccc(C(=O)NCC(=O)NCC(F)(F)F)c(C(F)(F)F)c1)c1cc(Cl)c(Cl)c(Cl)c1` (centres unmarked) [F87, (Z)—N-(2-Oxo-2-((2,2,2-trifluoroethyl)amino)ethyl)-4-(1,4,4-trifluoro-3-(3,4,5-trichlorophenyl)hex-1-en-1-yl)-2-(trifluoromethyl)benzamide], the pest or weed control at 50 µg/cm2 [1] was 50 to 100% and the pest or weed control at 50 µg/cm2 [2] was 50 to 100%.

`CCC(F)(F)C(/C=C(\F)c1ccc(C(=O)NC2(C(=O)NCC(F)(F)F)CC2)c(C(F)(F)F)c1)c1cc(Cl)c(Cl)c(Cl)c1` (centres unmarked) [F88, (Z)-4-(1,4,4-Trifluoro-3-(3,4,5-trichlorophenyl)hex-1-en-1-yl)-N-(1-((2,2,2-trifluoroethyl)carbamoyl)cyclopropyl)-2-(trifluoromethyl)benzamide] was tested, and the pest or weed control at 50 µg/cm2 [1] was 50 to 100% and the pest or weed control at 50 µg/cm2 [2] was 50 to 100%.

`O=C(NC1(C(=O)NCCCC(F)(F)F)CC1)c1ccc(/C(F)=C/C(c2cc(Cl)c(Cl)c(Cl)c2)C(F)(F)F)cc1C(F)(F)F` (centres unmarked) [F89, (Z)-4-(1,4,4,4-Tetrafluoro-3-(3,4,5-trichlorophenyl)but-1-en-1-yl)-N-(1-((4,4,4-trifluorobutyl)carbamoyl)cyclopropyl)-2-(trifluoromethyl)benzamide] showed a pest or weed control at 50 µg/cm2 [1] of 50 to 100% and a pest or weed control at 50 µg/cm2 [2] of 50 to 100%.

Work on `O=C(NC1(C(=O)NCCC(F)(F)F)CC1)c1ccc(/C(F)=C/C(c2cc(Cl)c(Cl)c(Cl)c2)C(F)(F)F)cc1C(F)(F)F` (centres unmarked) [F90, (Z)-4-(1,4,4,4-Tetrafluoro-3-(3,4,5-trichlorophenyl)but-1-en-1-yl)-2-(trifluoromethyl)-N-(1-((3,3,3-trifluoropropyl)carbamoyl)cyclopropyl)benzamide] yielded a pest or weed control at 50 µg/cm2 [1] of 50 to 100% and a pest or weed control at 50 µg/cm2 [2] of 50 to 100%.

In the case of `CC(C)CCNC(=O)C1(NC(=O)c2ccc(/C(F)=C/C(c3cc(Cl)c(Cl)c(Cl)c3)C(F)(F)F)cc2C(F)(F)F)CC1` (centres unmarked) [F91, (Z)—N-(1-(Isopentylcarbamoyl)cyclopropyl)-4-(1,4,4,4-tetrafluoro-3-(3,4,5-trichlorophenyl)but-1-en-1-yl)-2-(trifluoromethyl)benzamide], the pest or weed control at 50 µg/cm2 [1] was 50 to 100% and the pest or weed control at 50 µg/cm2 [2] was 50 to 100%.

`CC(F)(F)CNC(=O)C1(NC(=O)c2ccc(/C(F)=C/C(c3cc(Cl)c(Cl)c(Cl)c3)C(F)(F)F)cc2C(F)(F)F)CC1` (centres unmarked) [F92, (Z)—N-(1-((2,2-Difluoropropyl)carbamoyl)cyclopropyl)-4-(1,4,4,4-tetrafluoro-3-(3,4,5-trichlorophenyl)but-1-en-1-yl)-2-(trifluoromethyl)benzamide] showed a pest or weed control at 50 µg/cm2 [1] of 50 to 100% and a pest or weed control at 50 µg/cm2 [2] of 50 to 100%.
